According to DBAASP:
Converted amounts (≈) assume the structure as drawn. Values belong to the compound of their own block, whether it stands above or below them.

Legend:
Assay in all cases: ≥ marks a high value that may be exact or a test limit, other limits are often not marked, values filed in µg/mL are converted to µM
Escherichia coli JM109 = tested on: Escherichia coli JM109
Pseudomonas aeruginosa = tested on: Pseudomonas aeruginosa
[1] = tested on: Staphylococcus aureus ATCC 6538P
Staphylococcus aureus = tested on: Staphylococcus aureus
[2] = tested on: Bacillus subtilis ATCC 6633
[3] = tested on: Candida albicans ATCC 36232
[4] = tested on: Corynebacterium diphtheriae ATCC 8024
[5] = tested on: Escherichia coli ATCC 2592
[6] = tested on: Micrococcus luteus ATCC 9341
[7] = tested on: Pseudomonas aeruginosa ATCC 9027
[8] = tested on: Shigella flexneri ATCC 203
[9] = tested on: Staphylococcus aureus ATCC 6538
[10] = tested on: Staphylococcus epidermidis ATCC 12228
Candida albicans = tested on: Candida albicans
[11] = tested on: Escherichia coli NIHJ JC-2
[12] = tested on: Staphylococcus aureus FDA 209P JC-1
[13] = tested on: Bacillus cereus ATCC 11778
[14] = tested on: Enterococcus faecalis ATCC 29212
[15] = tested on: Escherichia coli ATCC 25922
[16] = tested on: Escherichia coli ATCC 35218
Escherichia coli O157 = tested on: Escherichia coli O157
[17] = tested on: Salmonella enterica subsp. arizonae ATCC 13314
[18] = tested on: Streptococcus pyogenes ATCC 19615

MIC (Escherichia coli JM109): 2.6 µM (≈ 3 µg/mL)
MIC (Pseudomonas aeruginosa): 3.46 µM (≈ 4 µg/mL)
MIC [1]: 1.73 µM (≈ 2 µg/mL)
MIC (Staphylococcus aureus): 27.7 µM (≈ 32 µg/mL)
Compound: CC[C@H](C)[C@H](NC(=O)[C@H](C)NC(=O)[C@H](CC(C)C)NC(=O)[C@H](Cc1c[nH]c2ccccc12)NC(=O)[C@H](CC(C)C)NC(=O)[C@H](C)N)C(=O)N[C@@H](CCCN=C(N)N)C(=O)N[C@@H](CCCN=C(N)N)C(=O)N[C@@H](CCCN=C(N)N)C(N)=O [ALWLAIRRR]

MIC [2]: 13.2 µM (≈ 15 µg/mL)
MIC [3]: 13.2 µM (≈ 15 µg/mL)
MIC [4]: 6.59 µM (≈ 7.49 µg/mL)
MIC [5]: 6.59 µM (≈ 7.49 µg/mL)
MIC [6]: 11 µM (≈ 12.5 µg/mL)
MIC [7]: 44 µM (≈ 50 µg/mL)
MIC [8]: 26.4 µM (≈ 30 µg/mL)
MIC [9]: 26.4 µM (≈ 30 µg/mL)
MIC (Staphylococcus aureus): > 87.9 µM
MIC [10]: 13.2 µM (≈ 15 µg/mL)
Compound: CC(C)[C@H](NC(=O)[C@H](CS)NC(=O)[C@@H](NC(=O)[C@H](CCCN=C(N)N)NC(=O)[C@H](CCCCN)NC(=O)CNC(=O)[C@H](CC(N)=O)NC(=O)[C@@H](N)CS)C(C)C)C(=O)N[C@@H](CS)C(=O)N[C@@H](CCCN=C(N)N)C(N)=O [CNGKRVCVCR]

MIC [2]: 0.615 µM (≈ 2 µg/mL)
MIC (Candida albicans): > 40 µM
MIC [11]: 1.23 µM (≈ 4 µg/mL)
MIC [12]: 2.46 µM (≈ 8 µg/mL)
Compound: CC(C)C[C@H](NC(=O)CN)C(=O)N[C@@H](CC(C)C)C(=O)N[C@@H](CC(=O)O)C(=O)N[C@@H](CO)C(=O)N[C@@H](CC(C)C)C(=O)N[C@@H](CCCCN)C(=O)NCC(=O)N[C@@H](Cc1ccccc1)C(=O)N[C@@H](C)C(=O)N[C@@H](C)C(=O)N[C@H](C(=O)N[C@@H](C)C(=O)NCC(=O)N[C@@H](CCCCN)C(=O)NCC(=O)N[C@H](C(=O)N[C@@H](CC(C)C)C(=O)N[C@@H](CCC(N)=O)C(=O)N[C@@H](CO)C(=O)N[C@@H](CC(C)C)C(=O)N[C@@H](CC(C)C)C(=O)N[C@@H](CO)C(=O)N[C@H](C(=O)N[C@@H](C)C(=O)N[C@@H](CO)C(=O)N[C@H]1CSSC[C@@H](C(=O)O)NC(=O)[C@H]([C@@H](C)O)NC(=O)[C@H](CCCCN)NC(=O)[C@H](C)NC(=O)[C@H](CC(C)C)NC(=O)[C@H](CCCCN)NC1=O)[C@@H](C)O)C(C)C)[C@@H](C)O [GLLDSLKGFAATAGKGVLQSLLSTASCKLAKTC]

MIC [13]: ≥ 75 µM
MIC [14]: 150 µM (≈ 502 µg/mL)
MIC [15]: 150 µM (≈ 502 µg/mL)
MIC [16]: ≥ 150 µM
MIC (Escherichia coli O157): ≥ 150 µM
MIC [6]: 19 µM (≈ 63.6 µg/mL)
MIC [7]: > 150 µM
MIC [17]: ≥ 150 µM
MIC [10]: 150 µM (≈ 502 µg/mL)
MIC [18]: ≥ 38 µM
Compound: CC(C)C[C@H](NC(=O)[C@H](CCC(N)=O)NC(=O)[C@H](Cc1ccc(O)cc1)NC(=O)[C@H](CCCN=C(N)N)NC(=O)CNC(=O)[C@H](C)NC(=O)[C@H](C)NC(=O)[C@@H](NC(=O)[C@H](CO)NC(=O)[C@H](Cc1ccc(O)cc1)NC(=O)[C@@H](NC(=O)[C@H](CCCCN)NC(=O)[C@H](Cc1ccc(O)cc1)NC(=O)[C@H](CCCN=C(N)N)NC(=O)[C@@H]1CCCN1C(=O)[C@H](CC(C)C)NC(=O)[C@H](Cc1ccc(O)cc1)NC(=O)[C@@H](NC(=O)[C@H](CCCCN)NC(=O)[C@H](CC(C)C)NC(=O)[C@H](CCCN=C(N)N)NC(=O)[C@@H]1CCCN1)C(C)C)C(C)C)[C@@H](C)O)C(=O)N[C@@H](CC(C)C)C(=O)N[C@@H](CO)C(=O)N[C@@H](CCCN=C(N)N)C(=O)N[C@@H](Cc1ccc(O)cc1)C(=O)N[C@@H](Cc1c[nH]c2ccccc12)C(N)=O [PRLKVYLPRYKVYSTAAGRYQLLSRYW]
